Measurements taken from ChEMBL document CHEMBL1201862, “PubChem BioAssay data set” (2004).
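Five compound concentrations were applied to cells in 96-well plates for 48 hours; endpoints were derived by simple linear interpolation of the resulting dose-response curve. Here, GI50 denotes the concentration required for 50% inhibition of growth.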 Active and inactive are the calls of the source. No stated cut-off is given here; in the data, active = GI50 up to about 1.1 µM and inactive = higher.

Key:
Assay in all cases: NCI anticancer screen, dose series, 48 h
[1] = test system: SF-539
[2] = test system: PC-3
[3] = test system: DU-145
[4] = test system: NCI/ADR-RES
[5] = test system: CCRF-CEM
[6] = test system: Hs-578T
[7] = test system: A549
[8] = test system: HL-60
[9] = test system: EKVX
[10] = test system: SK-MEL-5
[11] = test system: MDA-MB-435
[12] = test system: A498
[13] = test system: NCI-H460
[14] = test system: SF-268
[15] = test system: HT-29
[16] = test system: U-251
[17] = test system: HCT-15
[18] = test system: SK-MEL-28
[19] = test system: OVCAR-3

Row | SMILES | GI50 [1] | GI50 [2] | GI50 [3] | GI50 [4] | GI50 [5] | GI50 [6] | GI50 [7] | GI50 [8] | GI50 [9] | GI50 [10] | GI50 [11] | GI50 [12] | GI50 [13] | GI50 [14] | GI50 [15] | GI50 [16] | GI50 [17] [µM] | GI50 [18] | GI50 [19]
1 | O=C(CCc1cc(O)ccc1O)OCCc1ccccc1 | 3.83 µM (inactive) | 4.91 µM (inactive) | 19.9 µM (inactive) | 19.1 µM (inactive) | 0.313 µM (active) | 16.1 µM (inactive) | > 100 µM (inactive) | 0.718 µM (active) | 16.6 µM (inactive) | 22.2 µM (inactive) | 10.4 µM (inactive) | > 100 µM (inactive) | 44.8 µM (inactive) | 5.64 µM (inactive) | 41.1 µM (inactive) | 13.6 µM (inactive) | 11.1 | 25.1 µM (inactive) | –
2 | C#CC(O)/C=C/C(O)CCCC(O)CC#CC(O)C#CC(O)CCCC(O)/C=C/CCCCCC(=O)CCCCCCCCCCCCCC(O)C(O)C#CC(=O)O (configuration not stated) | – | > 50 µM (inactive) | > 50 µM (inactive) | > 50 µM (inactive) | 14.3 µM (inactive) | 12.2 µM (inactive) | > 50 µM (inactive) | 26.8 µM (inactive) | > 50 µM (inactive) | > 50 µM (inactive) | > 50 µM (inactive) | > 50 µM (inactive) | > 50 µM (inactive) | > 50 µM (inactive) | 19.3 µM (inactive) | > 50 µM (inactive) | > 50 | 12 µM (inactive) | –
3 | CCOC(=O)Nc1[nH]cc(-c2ccccc2)c1C#N | – | > 100 µM (inactive) | > 100 µM (inactive) | > 100 µM (inactive) | > 100 µM (inactive) | > 100 µM (inactive) | > 100 µM (inactive) | > 100 µM (inactive) | > 100 µM (inactive) | > 100 µM (inactive) | > 100 µM (inactive) | > 100 µM (inactive) | – | > 100 µM (inactive) | > 100 µM (inactive) | > 100 µM (inactive) | > 100 | > 100 µM (inactive) | > 100 µM (inactive)
4 | COc1ccc([C@H]2[C@H]3COC(=O)[C@H]3C(C#N)=C3Sc4ccccc4N32)cc1 | 22.3 µM (inactive) | 17.3 µM (inactive) | 19.2 µM (inactive) | 15.5 µM (inactive) | 11.9 µM (inactive) | 31.1 µM (inactive) | 30.5 µM (inactive) | – | 37.4 µM (inactive) | 21.1 µM (inactive) | 44.2 µM (inactive) | 43.7 µM (inactive) | 25.4 µM (inactive) | 71.6 µM (inactive) | 12.4 µM (inactive) | 24.6 µM (inactive) | 25.8 | 53.5 µM (inactive) | 16.4 µM (inactive)
5 | CCNC(=S)NNC(=O)C12CC3CC(CC(C3)C1)C2 | > 100 µM (inactive) | > 100 µM (inactive) | > 100 µM (inactive) | > 100 µM (inactive) | > 100 µM (inactive) | > 100 µM (inactive) | > 100 µM (inactive) | > 100 µM (inactive) | – | > 100 µM (inactive) | > 100 µM (inactive) | > 100 µM (inactive) | > 100 µM (inactive) | > 100 µM (inactive) | > 100 µM (inactive) | > 100 µM (inactive) | > 100 | > 100 µM (inactive) | > 100 µM (inactive)
6 | C(=N/Nc1ccc(-c2nc3ccccc3[nH]2)cc1)/c1c(-c2ccccc2)[nH]c2ccccc12 | 0.444 µM (active) | 0.311 µM (active) | 0.733 µM (active) | 0.286 µM (active) | 0.443 µM (active) | 0.267 µM (active) | – | 0.211 µM (active) | 3.16 µM (inactive) | 0.311 µM (active) | 0.0471 µM (active) | 0.516 µM (active) | 0.315 µM (active) | 0.647 µM (active) | 0.222 µM (active) | 0.322 µM (active) | 0.409 | 0.638 µM (active) | 0.219 µM (active)
7 | CC(=O)O[C@H]1C(=O)[C@@]2(C)[C@H]([C@H](OC(=O)c3ccccc3)[C@]3(O)C[C@H](OC(=O)[C@H](O)[C@@H](NC(=O)C(C)(O)C(C)O)c4ccccc4)C(C)=C1C3(C)C)[C@]1(OC(C)=O)CO[C@@H]1C[C@@H]2O (some centres not stated) | 0.112 µM (active) | 0.226 µM (active) | 0.927 µM (active) | > 50 µM (inactive) | 0.183 µM (active) | 0.0964 µM (active) | 0.573 µM (active) | 0.0859 µM (active) | > 50 µM (inactive) | 0.207 µM (active) | 0.0352 µM (active) | 9.44 µM (inactive) | 0.282 µM (active) | 0.31 µM (active) | 0.128 µM (active) | 0.239 µM (active) | 17 | – | 0.172 µM (active)
8 | CCN(CC)CCNc1ccc2ncn3c4c(OC)ccc(OC)c4c(=O)c1c23 | 20.8 µM (inactive) | > 10 µM (inactive) | 12.9 µM (inactive) | 5.6 µM (inactive) | 1.22 µM (inactive) | > 10 µM (inactive) | 22.5 µM (inactive) | – | 15.3 µM (inactive) | 17.2 µM (inactive) | > 10 µM (inactive) | 93.3 µM (inactive) | 4.4 µM (inactive) | 3.24 µM (inactive) | > 10 µM (inactive) | 15.5 µM (inactive) | 16 | 21.2 µM (inactive) | 30.3 µM (inactive)
